By IC50 is commonly meant the point on the concentration scale where inhibition reaches its midpoint.

Like-named read-outs stand apart in the source and are kept apart here.

From patent US10980768B2, “Composition containing carboplatin and use” (SYN-NAT PRODUCTS ENTERPRISE LLC, priority 2015, dated 2021) come the findings set out here.

The subject of data set [1] is HEK293 cells. Description: Cell viability (MTS) assay in HEK293 cells, renal adenocarcinoma study. Format: cell-based, human. The note with it: HEK293 normal embryonic kidney cells.
Another data set concerns ACHN cells. Description: Cell viability (MTS) assay in ACHN cells, renal adenocarcinoma study. Format: cell-based. The note with it: ACHN renal carcinoma cells, OD490 cell viability. The source says:
(§1) Cell culture: A498 and ACHN cells were purchased from Tongbai Bio (Shanghai, China).

The next data set concerns A498 cells. Description: Cell viability (MTS) assay in A498 cells, renal adenocarcinoma study. Format: cell-based. Conditions: A498 renal carcinoma cells, OD490 cell viability.
Description: as §1

Data set [2] relates to HL-7002 cells. Description: Cell viability (MTS) assay in HL-7002 cells, renal adenocarcinoma study.
Another data set concerns K562 cells. Description: Cell viability (MTS) assay in K562 cells, leukemia study. The class given is cell-based, human. Conditions: for toxicity: K562 cells, result in words; for IC50: K562 human myelogenous leukemia cells, OD490 cell viability.
Data set [3] deals with HEK293 cells. Description: Cell viability (MTS) assay in HEK293 cells, leukemia study. Conditions: for IC50: Homo sapiens, HEK293; for toxicity: HEK293 cells, leukemia study, result in words.
Data set [4] relates to HL-7002 cells. Conditions: leukemia study; for IC50: HL-7002 human fetal hepatic cells.
Description: After comparison of OD490 values of the tested agents and the control agents, an index of relative repression rate of cell proliferation was obtained. The IC50 value was calculated by using the SPSS16.0 software.
The cells were cultured in RPMI+5% Fetal Bovine Serum (FBS).
Cells treated with the solvents were used as negative controls, and carboplatin, etiposide and MTX were used as the positive controls. The cells were monitored daily, and the cell viability was evaluated with the Promega CellTiter 96 AQueous One Solution Cell Proliferation Assay (Promega, Madison, Wis., USA) according to the manufacture manuals. The cell viability was monitored at OD490 reading in a bio-spectrometer (Perkin Elmer, Walthan, Mass., USA).
Data analysis: The OD490 reading data were collected hourly from 1 h to 4 h after the addition of lysis buffer. The index of cell growth repression ratio was obtained by comparing the OD490 data of treatment to the negative control. The drug response rate IC50 was calculated with the SPSS 16.0 software.
Another data set has as its system HL-60 cells. Description: Cell viability (MTS) assay in HL-60 cells, leukemia study. Format: cell-based. The note with it: HL-60 human promyelocytic leukemia cells, OD490 cell viability.
Another data set has as its system melanoma. Description: Case of a melanoma patient with multiple metastases in the brain and adrenal gland treated with DCP solution. The class given is in vivo, human. The source says:
The following case summarizes DCP's pharmaceutical use on a melanoma patient with multiple metastases in the brain and adrenal grand. A metastatic tumor mass firstly was detected at the right frontal and parietal lobe of a patient's brain by MRI, and was removed by surgery in one month later. However, a new tumor mass with edema around it was detected at the left of parietal lobe. The tumor grew bigger, and the edema around the tumor became worse about two months after the new tumor was detected. The patient was treated with DCP solution (150 mg of DCP in 250 mL aqueous solution one time for every three days) for about three weeks.
The left lateral ventricle was compressed. The sign of removed tumors could be distinguished at the right frontal and parietal lobe, and the postoperative repair was found in the right frontal parietal bone. The midline structure shifted to the right side.
After treatment with DCP solution for about three weeks, the patient was examined (FIG. 10). […] The tumors at the right frontal and parietal lobe were removed, and the midline structure was normal.

Where [5] appears, read: HL-7002 normal hepatocytes, renal adenocarcinoma study.
Setting [6] is: after DCP solution for about three weeks.
The mark [7] stands for this setting: melanoma brain metastasis, 150 mg DCP in 250 mL every three days for about three weeks.

On to `O=c1[nH]cc(F)c(=O)[nH]1` [5-FU, fluorouracil], for which the IC50 in the data set with HEK293 cells [1] (Homo sapiens) was determined as 45 µM; with ACHN cells (Homo sapiens) it was 6.45 µM; with A498 cells (Homo sapiens), 18.2 µM; with HL-7002 cells [2] (Homo sapiens, Hepatocyte) it was 356 µM.
With `CN(Cc1cnc2nc(N)nc(N)c2n1)c1ccc(C(=O)N[C@@H](CCC(=O)O)C(=O)O)cc1` [MTX, Methotrexate], the toxicity entry in the data set on K562 cells is “did not show any toxicity”; with HL-7002 cells [4] (HL-7002 cells, result in words) it was “little toxicity”. Besides, the IC50 with HEK293 cells [3] was 17.6 µM; with HL-60 cells it was 15.3 µM.
`N.N.O=C([O-])C1(C(=O)[O-])CCC1.[Pt+2]` [carboplatin]: the IC50 with K562 cells worked out at 1210 µM; in the data set on HEK293 cells [1] it was 410 µM; in the data set with ACHN cells it was 11 µM; in the data set with HL-7002 cells [4] it was 503 µM; with HL-60 cells, 17.3 µM; in the data set with A498 cells, 18.4 µM. In the data set on HL-7002 cells [2] (setting [5]), this compound yielded an IC50 of 1410 µM. The toxicity result in the data set on HEK293 cells [3] is on record as “no toxicity”.
For `COc1cc([C@@H]2c3cc4c(cc3[C@@H](O[C@@H]3O[C@@H]5CO[C@@H](C)O[C@H]5[C@H](O)[C@H]3O)[C@H]3COC(=O)[C@H]23)OCO4)cc(OC)c1O` [etoposide], in the data set on K562 cells, the toxicity result is recorded as “did not show any toxicity”. The results for the 50% inhibitory concentration (IC50) with HEK293 cells [3], in the data set with HL-7002 cells [4] and with HL-60 cells were 359 µM, 512 µM and 15.3 µM, respectively.
Turning to dicycloplatin [DCP], the IC50 is 812 µM in the data set on K562 cells; 463 µM with HEK293 cells [1]; 15.4 µM with ACHN cells; 503 µM with HL-7002 cells [4]; 18.6 µM in the data set on HL-60 cells; 20.9 µM in the data set with A498 cells. The compound further returned an IC50 with HL-7002 cells [2] (setting [5]) of 1470 µM. The toxicity entry with HEK293 cells [3] is “no toxicity”. Moreover, the “edema around the tumor, post-chemo CT” value in the data set on melanoma (setting [6]) is given as “significantly relieved”. In addition, in the data set with melanoma (setting [6]), the “tumor mass at the left of parietal lobe, post-chemo CT vs pre-chemo CT” value is “shrunk”. The “edema around the tumor by MRI” value with melanoma (setting [7]) is “relieved”. The “tumor mass by MRI” value in the data set with melanoma (setting [7]) is “shrunk”. For the same compound, the “cellular toxicity lower than 5-FU” value in the data set with HL-7002 cells [2] (HL-7002 and HEK293 normal cells, compared to 5-FU) turned out to be 4 fold.
